Consider 2 molecules from patent US20130197073A1, “HYPOCHOLESTEROLEMIC, ANTI-INFLAMMATORY AND ANTIEPILEPTIC NEUROPROTECTIVE COMPOUND” (NEURON BIOPHARMA, S.A., priority 2010, published 2013).

The test system of data set [1] is zebrafish (Danio rerio, AB strain) embryos. The experiment in a line: Zebrafish embryo acute toxicity, mortality (OECD C.15). The conditions noted are these: for Mortality (dead larvae with respect to the total): 3 days. It is filed as in vivo. The method, then: 30 control animals treated with dilution water and with daily replacement until the end of the assay.
30 animals treated with compound NST0060 (3 embryos for every ten replicates) diluted in dilution water at doses between 1 and 100 mg/Kg and with daily replacement of the substance during the days that the assay lasted.
After the time of exposure to the substances under study, the mortality record of the larvae was determined, results being shown in Table 2.

Data set [2] has the same test system. The experiment in a line: Zebrafish embryo cardiotoxicity, heart rate. The conditions noted are these: 72 hpt.
The test system is the same in data set [3]. The experiment in a line: Zebrafish embryo acute toxicity, percentage of healthy larvae. Particulars: mean±SD.
The next data set deals with caspase 3/7. Kind of data set: Inhibition of activation of caspase 3/7 in camptothecin cell model of apoptosis. It is filed as cell-based, human. The conditions noted are these: 50 μM, positive control; 50 μM CPT 6 hours. On the procedure:
(§1) The assay was performed on human neuroblastoma SK-N-MC cells in culture, maintained as described in section 2.1.
The induction of apoptosis on the cells in culture was performed with camptothecin (CPT), which triggers the activation of cell apoptosis. Apoptosis was quantified by means of the measurement of the activation of effector caspases, caspase 3 or caspase 7, for which a kit for the fluorometric detection of active caspase 3/7 (Apo-ONE® Homogeneous Caspase-3/7, Promega) was used. Active caspases 3 or 7 of the cells cause the rupture of a substrate, which leads to fluorescence emission, which is read by means of a fluorometer. The effect of the pretreatment of compound NST0060 at 10 and 40 μM on the activation of caspase 3/7 produced by 50 μM of camptothecin (CPT) in the SK-N-MC cells was thus analyzed. These cells, not exceeding 15 passages, were seeded on 96-well plates treated for adherent cells with a cell concentration of 5×10^4 cells/well; 3 wells of the plate were seeded for each assay condition.
After 24 hours of cell incubation (at 37° C. and 5% CO2), the pretreatment with NST0060 at 10 and 40 μM was performed.
The cells were incubated (at 37° C. and 5% CO2) with these treatments for 6 hours, after which cell lysis buffer and the caspase substrate at the concentrations specified by the manufacturer were added; it was incubated at room temperature for 30 minutes and then frozen at −20° C. overnight. Fluorescence was measured the next day (499/521 nm, Exci/Emi).

Data set [4] concerns human neuroblastoma SK-N-MC cells. Kind of data set: Inhibition of DNA fragmentation (sub-G1, flow cytometry) in camptothecin cell model of apoptosis. It is filed as cell-based. Particulars: 50 μM, positive control; 50 μM CPT. The method, then:
as §1
The inhibition caused by compound NST0060 with respect to apoptosis caused by treatment with camptothecin (CPT), which inhibits the topoisomerase I enzyme, prevents DNA duplication and triggers apoptotic cell death. These cells, not exceeding 15 passages, were seeded on 6-well plates treated for adherent cells with a cell concentration of 7×10^5 cells/well; 2 wells of the plate were seeded for each assay condition.
After 24 hours of cell incubation (at 37° C. and 5% CO2), cell pretreatment was performed with 10 and 40 μM of NST0060 for 24 hours; they were subsequently treated with 50 μM CPT for 6 hours. Furthermore, Z-VAD-fmk at 50 μM was used as positive control for inhibition.
After treatment, the cells were collected along with their culture medium and centrifuged at 300×g for 5 minutes. The medium was removed, a washing was performed with PBS and the cells were fixed for 2 minutes with 500 μl of 70% ethanol at −20° C. […] After this time they were analyzed by flow cytometry, comparing the fluorescence of propidium iodide with respect to the amount of DNA. The percentage of apoptosis was measured on the sub-G1 region of each of the conditions.

For the molecule `CCC(C)(C)C(=O)O[C@H]1C[C@@H](C)C=C2C=C[C@H](C)[C@H](CC[C@@H]3C[C@@H](O)CC(=O)O3)[C@H]21` [simvastatin, reference compound], the “Mortality (dead larvae with respect to the total)” value in data set [1] (Dose 1 mg/kg) was 0/30; in data set [1] (Dose 3 mg/kg), 0/30; in data set [1] (Dose 10 mg/kg), 16/30; in data set [1] (Dose 30 mg/kg) it was 30/30; in data set [1] (Dose 100 mg/kg), 30/30. Further, the “deaths out of 30 animals” value in data set [1] (dose of 10 mg/Kg, 72 h) is 16. Besides, the “heart rate with respect to the controls” value in data set [2] (dose of 3 mg/Kg) and in data set [2] (dose of 10 mg/Kg) was “significant decrease of the heart rate” in each case. The “percentage of healthy larvae” value in data set [3] (dose of 1 mg/Kg) and in data set [3] (dose of 3 mg/Kg) was 50.0±22.4% each time.

Z-VAD-fmk [reference compound]: the “inhibition of the activation of caspase 3/7” value in the data set on caspase 3/7 was “completely inhibited”. Moreover, in data set [4], the “inhibition of apoptosis (DNA fragmentation) caused by CPT” value was “specifically inhibited apoptosis caused by CPT”.
